C[C@H]1[C@H](OC(=O)CCC(=O)O)O[C@@H]2O[C@@]3(C)CC[C@H]4[C@H](C)CC[C@@H]1[C@@]24OO3
solubility (mole fraction)
Details | 278.15 K | 283.15 K | 288.15 K | 293.15 K | 298.15 K | 303.15 K | 308.15 K | 313.15 K | 318.15 K
in ethanol | 0.00528 | 0.00575 | 0.00636 | 0.00709 | 0.00782 | 0.00854 | 0.00939 | 0.0102 | 0.0111
in isopropanol | 0.00285 | 0.00336 | 0.00392 | 0.00461 | 0.00527 | 0.00609 | 0.00698 | 0.00796 | 0.00898
in methanol | 0.00497 | 0.00538 | 0.00606 | 0.00677 | 0.00747 | 0.00817 | 0.00906 | 0.00994 | 0.0108
in propylene glycol | 0.001 | 0.00123 | 0.00148 | 0.00176 | 0.00205 | 0.00237 | 0.00279 | 0.0032 | 0.00366
in water | 9.48e-06 | 1.28e-05 | 1.66e-05 | 2.16e-05 | 2.71e-05 | 3.51e-05 | 4.44e-05 | 5.54e-05 | 6.94e-05

From BigSolDB 2.1
